{"source": "patent US9241961B2", "about": "“Medicinal product for treating gastrointestinal ulcers” (BIOCEDEX, priority 2009, dated 2016)", "key": {"[1]": {"assay": "development of body weight of the rats during 6-day oral treatment", "type": "in vivo", "details": "Sb 0.3-1.0-3.0 g/kg/d and/or ibuprofen 100 mg/kg/d, 6 days, rat", "method": "Male Wistar rats obtained from Janvier weighing between 200 and 220 grams are used after acclimatization for at least 7 days in the animal house (temp.=22 ±2° C.; humidity: 50±20%; food SAFE “A04”; nyctohemeral cycle: 12 hours of light and 12 hours of darkness).\nOn D1, the rat receives the test product or the solvent by the oral route. Then, 1 hour later, the rat receives ibuprofen at 100 mg/kg by the oral route, or the solvent for the control group. The rats receive these treatments for 6 consecutive days."}, "[2]": {"system": "gastric ibuprofen-induced ulcer", "assay": "model of gastric ibuprofen-induced ulcer in the rat", "type": "in vivo", "details": "ibuprofen alone 100 mg/kg/d oral for 6 days, male Wistar rat", "method": "The inventors determined the anti-ulcer effect of Saccharomyces boulardii in the model of gastric ibuprofen-induced ulcer in the rat according to the protocol of Abraham et al. (2005) Dig Dis Sci 50:1 632-1 640. Male Wistar rats obtained from Janvier weighing between 200 and 220 grams are used after acclimatization for at least 7 days in the animal house (temp.=22 ±2° C.; humidity: 50±20%; food SAFE “A04”; nyctohemeral cycle: 12 hours of light and 12 hours of darkness). On D1, the rat receives the test product or the solvent by the oral route. Then, 1 hour later, the rat receives ibuprofen at 100 mg/kg by the oral route, or the solvent for the control group. The rats receive these treatments for 6 consecutive days. The animals go without food for 14-16 hours before the last administration of ibuprofen, but have access to drink. They are placed individually in a metal cage, the floor of which is a grating, to prevent coprophagia. On D6 the rat is sacrificed. […] Macroscopic evaluation of the gastric lesions is carried out as follows: • the stomach is spread out on a cork support with pins; • the number of ulcers on each stomach is counted; • the ulcerated area (mm^2) of haemorrhagic lesions is measured with a grid of squares (×10) and a stereo-microscope (Leica Wild M8) by measuring the length (mm) and width (mm) of each ulceration. […]"}}}
{"molecule": "CC(C)Cc1ccc(C(C)C(=O)O)cc1", "note": "(stereo not drawn) [ibuprofen]", "values": [{"measurement": "development of body weight relative to the untreated group", "setting": "[1]", "value": "do not alter the development of body weight"}, {"measurement": "number of ulcers", "setting": "[2]; gastric mucosa, recorded on day 6", "value": "6.60±1.06", "unit": "ulcers"}, {"measurement": "total area of ulceration", "setting": "[2]; measured on day 6", "value": "9.40±1.72", "unit": "mm^2"}]}
